Assay results: patent publication US7732200B2, “Materials and methods for nerve grafting, selection of nerve grafts, and in vitro nerve tissue culture” (University of Florida Research Foundation, Inc., priority 2001, dated 2010)

Experiments:
CSPG [1] = assay: CSPG neoepitope (Ab1918) and laminin immunolabeling of acellular nerve segments treated en bloc; settings: acellular rat sciatic nerve segments bathed en bloc 16 h, 2 units/ml
Source text: Preparation of acellular nerve grafts treated with chondroitinase: Adult (180-200 g) female SPRAGUE DAWLEY rats (HARLAN, Indianapolis, Ind.) were used as nerve donors and recipient hosts. Donor rats were anesthetized with halothane and decapitated. Sciatic nerves were exposed through a gluteal muscle-splitting incision and isolated free of underlying fascia. A 15-mm nerve segment was excised rostral to the bifurcation into common peroneal and tibial nerves. The segments were rinsed with cold sterile Ringer's solution, stabilized by pinning the ends to a thin plastic support, and transferred to a cryogenic vial. The vials were submerged in liquid nitrogen for 2 minutes and then transferred to a 37° C. water bath for 2 minutes. This freeze/thaw cycle was repeated, yielding acellular nerve grafts that were then stored in liquid nitrogen. On the day before grafting, the nerve grafts were warmed to room temperature and incubated in 100 μl phosphate buffered saline pH 7.4 (PBS) containing 2 units/ml chondroitinase ABC (SIGMA, St. Louis, Mo.) or in PBS (vehicle) only for 16 hours at 37° C. The grafts were rinsed twice with Ringer's and kept on ice prior to use. […]
(§1) Immunocytochemistry. Axonal regeneration was assessed by GAP-43 immunofluorescence and digital image analysis. […]

rat sciatic nerve = assay: Human-to-rat acellular nerve xenograft model (GAP-43 profiles); assay type: in vivo; settings: acellular human nerve fascicle grafts in rat, 8 days, 2 rats
Method: In the following experiments, the hypothesis that chondroitinase treatment improves nerve regeneration through acellular human nerve grafts in a rat xenograft model was tested. Subunits (individual fascicles) taken from human nerves were treated en bloc with vehicle or chondroitinase ABC. Ten-mm interpositional nerve grafts were joined to the rat host sciatic nerve by epineurial neurorrhaphy reinforced with fibrin glue. Each of 2 host rats received bilateral grafts, one vehicle-treated and one chondroitinase-treated graft. Regeneration was initially examined after 8 days. Axonal growth was assessed at specified spatial intervals within the graft by scoring GAP-43-immunopositive profiles in transverse sections.

CSPG [2] = assay: CSPG neoepitope immunostaining of injured sciatic nerve after a single in vivo injection; parameters: species or system rat; settings: 1 U in 2 μl injected 2 mm distal to injury; 4 days (transection) or 2 days (crush)
Method: (§2) Surgical procedures for nerve transection and nerve crush experiments. All surgical procedures were performed according to Institutional Animal Care and Use Committee (IACUC) approved protocols. Young adult SPRAGUE DAWLEY rats (HARLAN Indianapolis, Ind.) were deeply anesthetized with xylazine (15 mg/kg, i.m.) followed by ketamine-HCl (110 mg/kg, i.p.). Six animals received bilateral nerve crush injuries. Sciatic nerves were exposed and then crushed with firm pressure for thirty seconds with a DUMONT #5 forceps at a site 4 mm distal to the tendon of the internal obdurator. The crush site was marked with an epineurial suture. In a separate set of experiments, eight rats received bilateral sciatic nerve transection injuries using serrated scissors. The proximal and distal stumps were […] by epineurial neurorrhaphy using 9-0 ETHILON sutures. Fibrin glue (fibrinogen and thrombin) was then applied to stabilize the union. In both injury models, the right sciatic nerves were injected 2-mm distal to the injury with chondroitinase ABC (1 U in 2 μl) (high-purity, protease-free; SIGMA CHEMICAL CO., St. Louis, Mo.). Left sciatic nerves (with the same injury as the right side) were injected with vehicle alone (0.1% bovine serum albumin in PBS). […]
as §1

sciatic nerve = assay: Axonal regeneration after bilateral sciatic nerve crush injury (axonotmesis); assay type: in vivo, rat; settings: 1 U in 2 μl; 2 days after injury; 6 nerves per condition
Method: as §2, with “union.” for “union. In both injury models, the right sciatic nerves were injected 2-mm distal to the injury with chondroitinase ABC (1 U in 2 μl) (high-purity, protease-free; SIGMA CHEMICAL CO., St. Louis, Mo.). Left sciatic nerves (with the same injury as the right side) were injected with vehicle alone (0.1% bovine serum albumin in PBS).”
as §1
The hypothesis that chondroitinase treatment improves axonal growth through the site of nerve crush injury was tested. […] Regenerating axons were labeled by GAP-43 immunofluorescence and scored by digital image analysis. […]

**Q.** For chondroitinase ABC, which “CSPG degradation by Ab1918 neoepitope immunostaining” value (CSPG [1]) is on record?
**A.** thoroughly degraded CSPG side-chains

**Q.** And the “average number of axons (GAP-43-immunopositive profiles) entering grafts vs control grafts” value (rat sciatic nerve)?
**A.** more than three-fold greater

**Q.** What about the “CSPG degradation in extracellular matrix around the injection site” value (CSPG [2]) of the same substance?
**A.** substantially, if not completely, degraded CSPG

**Q.** And the “axonal regeneration after nerve crush injury (GAP-43 immunoreactivity) vs vehicle” value (sciatic nerve)?
**A.** not significantly effected
